Reference: article PMC11321638 (Advanced Science, 2024)
No end group written: not given here.

Experiments:
[1] = target: T1, protease K (Parengyodontium album, UniProt P06873)
[2] = tested on: BALB/c mice; settings: mouse, in vivo, sc
[3] = target: T1, protease K; assay: in vitro; settings: isolated enzyme

T1 sequence (P06873 106-384 limits assumed): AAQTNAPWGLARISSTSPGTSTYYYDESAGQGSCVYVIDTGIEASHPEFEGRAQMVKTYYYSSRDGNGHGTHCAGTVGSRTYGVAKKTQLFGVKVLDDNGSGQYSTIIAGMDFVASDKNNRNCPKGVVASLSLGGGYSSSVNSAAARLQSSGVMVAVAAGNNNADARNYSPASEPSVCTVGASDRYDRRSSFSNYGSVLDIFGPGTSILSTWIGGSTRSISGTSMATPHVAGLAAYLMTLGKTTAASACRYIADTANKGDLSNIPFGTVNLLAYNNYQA

SEFMRNALEEMLRRA-NH2 [RSIpep]
t1/2 with protease K [1]: less than 1 h
pathological section analysis of heart, liver, spleen, lung, kidney [2]: no discernible pathological alterations
half-life [3]: 37.2 ± 1.8 min
